According to patent US11883503B2, “Methods and compositions for cancer treatment” (DINGFU BIOTARGET CO., LTD., priority 2017, dated 2024):

System: peripheral blood lymphocytes
Assay: Flow cytometry of CD4+ and CD8+ lymphocytes in peripheral blood after FTY720
Type: in vivo, mice
Conditions: 3 days after first administration of FTY720
Method: FTY720 (SIGMA, Cat #SML0700-5MG) was used to test activation of T cells in the tumor microenvironment. FTY720 is a lipophilic immunomodulatory sphingosine-1-phosphate analog, it induces severe peripheral blood lymphopenia and sustains lymphopenia in mice by preventing lymphocytes to egress from lymph organs through agonist-induced receptor internalization.
B16-EGFR-SIY cells were inoculated s.c. into the both flanks of mice. […] Then 3 days later, after the first administration of depletion antibodies or FTY720, lymphocytes suspensions were prepared from their peripheral blood, and labeled with APC-anti-mCD4 (clone GK1.5, BioLegend), FITC-anti-mCD8a (clone 53-6.7, BioLegend), FITC-anti-mCD3 (clone 17A2, BioLegend), or APC-anti-mNK1.1 (clone PK136, BioLegend). Tumor volumes on the both flanks were measured and monitored. Samples were analyzed on a Life Attune Flow Cytometer (Life), and data were analyzed. Representative data is shown in FIG. 6C-6F, based on results obtained from three experiments conducted with 5-6 mice per group.

CCCCCCCCc1ccc(CCC(N)(CO)CO)cc1 [FTY720]
relative number of CD4+ T cells in peripheral blood: ~1.5% | relative number of CD8+ T cells in peripheral blood: about 0.5%
